Values of other authors, collected in US5484911A, “Nucleoside 5'-diphosphate conjugates of ether lipids” (Health Research, Inc., priority 1993, dated 1996).

Key:
[1] = test system: colon 26 carcinoma, M5076 sarcoma, Lewis lung carcinoma, and C-1300 neuroblastoma; conditions: mouse, in vivo; cited from earlier work
[2] = test system: L1210 and P388 leukemia; conditions: mouse, in vivo; cited from earlier work
[3] = test system: myelomonocytic WEHI-3B leukemia; conditions: mouse, in vivo; cited from earlier work
[4] = mouse, in vivo; cited from earlier work
[5] = test system: human colorectal cancer xenografts and PSN-1 human pancreatic tumor; conditions: mouse, in vivo; cited from earlier work
[6] = test system: rat mammary carcinoma SMT-2A; conditions: alone and in combination with VP-16; cited from earlier work
[7] = test system: L1210 leukemic cells; conditions: cited from earlier work
[8] = test system: M5076 sarcoma and Lewis lung carcinoma; conditions: mouse, in vivo; cited from earlier work
[9] = test system: respiratory syncytial; conditions: cited from earlier work
[10] = test system: herpes simplex; conditions: cited from earlier work
[11] = test system: biosynthesis of phosphatidylinositol, phosphatidylglycerol or diphosphatidylglycerol; conditions: rat liver subcellular fractions; release of nucleoside 5'-monophosphates; cited from earlier work

## CCCCCCCCCCCCCCCCCCSCC(COP(=O)(O)OP(=O)(O)OC[C@H]1O[C@@H](n2ccc(N)nc2=O)[C@@H](O)[C@@H]1O)OC(=O)CCCCCCCCCCCCCCC (mixture of isomers) [Cytoros]
[1]
  therapeutic activity: rather broad spectrum of therapeutic activity
[2]
  effectiveness among ara-C conjugates tested: the most effective of those tested
[3]
  efficacy compared with ara-CDP-L-dipalmitin: considerably higher efficacy than ara-CDP-L-dipalmitin
[4]
  plasma ara-C concentration and intracellular retention of ara-CTP compared to ara-C: more prolonged plasma ara-C concentration and intracellular retention of ara-CTP
[5]
  antitumor activity: strong antitumor activity
[6]
  primary and lymph node metastasis: markedly retarded both primary and lymph node metastasis
[7]
  cytotoxicity to L1210 leukemic cells compared to normal mouse bone marrow cells: selective cytotoxicity to L1210 leukemic cells
[8]
  antimetastatic activity: displayed antimetastic activity

## CCCCCCCCCCCCCCCCCCCCCCO [Example 1-Docosanol, 1-Docosanol]
[9]
  respiratory syncytial viral replication: inhibits herpes simplex and respiratory syncytial viral replication
[10]
  herpes simplex viral replication: inhibits herpes simplex and respiratory syncytial viral replication

## AZT diphosphate diglyceride [AZTDP-DG]
[11]
  substitution for CDP-DG in phospholipid biosynthesis: can substitute to varying extents for CDP-DG
